Measurements as given in paper PMC4724290 (Synapse (New York, N.Y.), 2015).
Several values for one entry are separate records, joined by “and”; a condition that tells them apart may be missing. Equal entries are not always repeated. Entries after “also recorded” stand apart in the source; their conditions may differ. Where two headings read alike, the source gives them in different places.

Columns and labels:
[1] = target: T1, σ1 receptors (Mus musculus, UniProt O55242); test: In vitro σ1 receptor binding, [^3H]; set-up: species or system CD-1 mouse; settings: for Selectivity Ki Ratio σ2/σ1: CD-1 mouse whole brain membranes
[2] = target: T2, σ2 receptors (Mus musculus, UniProt Q8VD00); test: In vitro σ2 receptor binding, [^3H]DTG/; set-up: species or system CD-1 mouse
T2 sequence (Q8VD00 1-176): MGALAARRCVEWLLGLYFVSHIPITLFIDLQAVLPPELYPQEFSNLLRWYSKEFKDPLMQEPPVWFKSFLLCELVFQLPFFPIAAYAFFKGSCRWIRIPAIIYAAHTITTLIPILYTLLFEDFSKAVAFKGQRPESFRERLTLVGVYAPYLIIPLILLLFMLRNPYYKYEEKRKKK

[3] = test system: CD-1 mice; test: Locomotor activity: basal and; type: in vivo; settings: i.p.; E-IA-DM-PE-PIPZE up to 3.16 μmol/kg, BD1063 3.16 and 31.6 μmol/kg; 60 min
[4] = target: DAT; settings: read-out: Ki for the DAT in vitro; ref Lever et al., 2012; cited from earlier work
[5] = target: T1, σ1 receptors; type: in vivo, CD-1 mice; settings: for Occupancy of cerebral σ1 receptors: in the absence of (−)-cocaine
[6] = target: striatal dopamine transporters (DAT) (Mus musculus, UniProt Q61327); test: In vivo DAT occupancy: inhibition of [^125I]RTI-121 specific binding in striatum; set-up: species or system CD-1 mice
[7] = target: σ1 receptors; settings: read-out: σ1 Ki; ref Lever et al., 2014a; cited from earlier work
[8] = target: T1, σ1 receptors; settings: ref Lever et al., 2014a; cited from earlier work
[9] = target: T1, σ1 receptors; settings: read-out: Kd for σ1 sites in mouse brain membranes; ref Lever et al., 2012; cited from earlier work
[10] = target: T1, σ1 receptors; type: in vivo, CD-1 mice; settings: saline control, 60 min
[11] = ref Lever et al., 2012, 2014a, 2015; cited from earlier work
[12] = ref Fowler et al., 2007; cited from earlier work
[13] = test system: striatal DAT; settings: Swiss Webster strain; ref Desai and colleagues (2005); cited from earlier work
[14] = test system: mice; settings: cited from earlier work
[15] = 3.0 nM [^3H](+)pentazocine, 37 °C, 180 min
[16] = read-out: Sigma1 IC50, 3.0 nM [^3H](+)pentazocine, 37 °C, 180 min
[17] = 3.0 nM [^3H]DTG/500 nM (+)pentazocine, 25 °C, 60 min
[18] = read-out: Sigma2 IC50, 3.0 nM [^3H]DTG/500 nM (+)pentazocine, 25 °C, 60 min
[19] = ligand i.p. 1 min prior to radioligand, 30 min, unconstrained fit
[20] = homologous saturation, 25 °C, 60 min, two-site model
[21] = 2.5 μCi i.v., 60 min, non-specific defined by BD1063

Sequence of striatal dopamine transporters (DAT) (Q61327 whole entry): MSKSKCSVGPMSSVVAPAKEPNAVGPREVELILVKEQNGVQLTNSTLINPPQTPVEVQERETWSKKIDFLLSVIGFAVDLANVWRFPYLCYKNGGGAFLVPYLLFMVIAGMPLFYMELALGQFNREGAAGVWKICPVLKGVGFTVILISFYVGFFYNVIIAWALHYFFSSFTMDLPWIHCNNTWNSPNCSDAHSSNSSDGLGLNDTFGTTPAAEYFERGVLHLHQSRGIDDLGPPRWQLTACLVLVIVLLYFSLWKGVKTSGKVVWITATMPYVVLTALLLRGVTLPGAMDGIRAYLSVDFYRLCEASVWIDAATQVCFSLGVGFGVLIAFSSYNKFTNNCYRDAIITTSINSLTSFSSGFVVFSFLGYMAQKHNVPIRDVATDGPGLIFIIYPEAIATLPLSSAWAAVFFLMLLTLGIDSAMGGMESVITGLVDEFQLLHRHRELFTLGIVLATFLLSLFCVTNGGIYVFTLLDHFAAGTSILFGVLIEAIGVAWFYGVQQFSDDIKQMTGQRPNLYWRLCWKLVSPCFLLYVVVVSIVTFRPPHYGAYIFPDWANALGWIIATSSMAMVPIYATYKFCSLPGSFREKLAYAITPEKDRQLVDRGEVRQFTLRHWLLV
T1 sequence (O55242 whole entry): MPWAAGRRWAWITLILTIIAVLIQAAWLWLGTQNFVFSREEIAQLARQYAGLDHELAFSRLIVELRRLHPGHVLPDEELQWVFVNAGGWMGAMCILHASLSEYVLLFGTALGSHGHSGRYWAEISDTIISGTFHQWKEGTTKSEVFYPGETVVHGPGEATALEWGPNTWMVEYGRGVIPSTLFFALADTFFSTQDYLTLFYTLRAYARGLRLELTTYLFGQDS

C=CCN1CCC2(C)c3cc(O)ccc3CC1C2C (single isomer, unassigned; (+)) [(+)-NANM, (+)-N-allylnormetazocine]
Sigma1 nH [1, 15]: 1.06 ± 0.11
Selectivity Ki Ratio σ2/σ1 [1]: 608
IC50 [1, 16]: 20.6 ± 1.14 nM
Ki ([1]; read-out: Sigma1 Ki): 13.3 ± 0.74 nM
Sigma2 nH [2, 17]: 0.98 ± 0.12
IC50 [2, 18]: 8.99 ± 0.85 µM

C=CCN1CCC2(C)c3cc(O)ccc3CC1C2C (single isomer, unassigned; (-)) [(−)-NANM, (−)-N-allylnormetazocine]
Sigma1 nH [1, 15]: 1.09 ± 0.08
Selectivity Ki Ratio σ2/σ1 [1]: 2.6
IC50 [1, 16]: 3980 ± 600 nM
Ki ([1]; read-out: Sigma1 Ki): 2550 ± 383 nM
Sigma2 nH [2, 17]: 0.93 ± 0.08
IC50 [2, 18]: 7.46 ± 0.469 µM

CC(C)=CCN1CC[C@]2(C)c3cc(O)ccc3C[C@H]1[C@H]2C [(+)-Pentazocine, (+)-pentazocine]
Sigma1 nH [1, 15]: 1.09 ± 0.03

Cc1ccccc1NC(=N)Nc1ccccc1C [DTG, 1,3-di(2-tolyl)guanidine]
IC50 [1]: 173 ± 19.9 nM
Ki [1]: 112 ± 12.9 nM
Sigma1 nH [1, 15]: 0.91 ± 0.14
Sigma2 nH [2, 17]: 0.88 ± 0.05

COc1ccc(CCN2CCN(C/C=C/I)CC2)cc1OC [E-IA-DM-PE-PIPZE, E-N-1-(3′-iodoallyl)-N′-4-(3″,4″-dimethoxyphenethyl)-piperazine]
Sigma1 nH [1, 15]: 0.98 ± 0.07
Selectivity Ki Ratio σ2/σ1 [1]: 215
IC50 [1, 16]: 10.4 ± 1.39 nM
Ki ([1]; read-out: Sigma1 Ki): 6.73 ± 0.9 nM
Effect on basal locomotor activity [3]: do not significantly; also recorded: not affected
Ki [4]: > 10 µM
Occupancy of cerebral σ1 receptors ([5]; 0.316 μmol/kg i.p.): 58%
Occupancy of cerebral σ1 receptors ([5]; 3.16 μmol/kg i.p.): 86%
ED50 for σ1 occupancy, brain [5, 19]: 0.23 µmol/kg
ED50 for σ1 occupancy, heart [5, 19]: 0.03 µmol/kg
ED50 for σ1 occupancy, lung [5, 19]: 0.08 µmol/kg
ED50 for σ1 occupancy, spleen [5, 19]: 0.35 µmol/kg
Sigma2 nH [2, 17]: 0.98 ± 0.08
IC50 [2, 18]: 1.6 ± 0.243 µM
Inhibition of striatal [^125I]RTI-121 specific binding ([6]; 10.0 μmol/kg i.p.): did not affect radioligand binding; also recorded: No inhibition

Fc1ccc(C(OCCN2CCN(CCCc3ccccc3)CC2)c2ccc(F)cc2)cc1 [GBR12909, 1-{2-[bis-(4-fluorophenyl)methoxy]ethyl}-4-(3-phenylpropyl)piperazine]
inhibition at 10 µmol/kg ([6]; mouse, iv, read-out: Inhibition of specific [^125I]RTI-121 binding): 75%

CC(C(O)c1ccc(O)cc1)N1CCC(Cc2ccccc2)CC1 (stereo not drawn) [Ifenprodil, ifenprodil (+)-tartrate]
IC50 [1]: 35 ± 0.95 nM
Ki [1]: 22.7 ± 0.61 nM
Sigma1 nH [1, 15]: 1.08 ± 0.06
Selectivity Ki Ratio σ2/σ1 [1]: 0.1
IC50 [2]: 0.00269 ± 0.00036 µM
Ki [2]: 2.43 ± 0.32 nM
Sigma2 nH [2, 17]: 0.70 ± 0.07

CCCN1CCC=C(c2cc(-c3ccc(C)cc3)no2)C1 [PD144418]
Ki [7]: 0.19 nM
σ1 receptor occupancy threshold for significant behavioral effects [8]: 80%

CC(C)=CCN1CC[C@]2(C)c3cc(O)ccc3C[C@H]1[C@H]2C [[^3H](+)-Pentazocine]
Maximal site density (Bmax), σ1 receptors ([1]; saturation binding, 37 °C, 180 min): 538 ± 30 fmol/mg protein and 538 fmol/mg protein

Cc1ccccc1NC(=N)Nc1ccccc1C [[^3H]DTG]
Bmax, high affinity, low capacity site (σ2 receptor) [2, 20]: 711 ± 81 fmol/mg protein
Bmax, low affinity, high capacity site [2, 20]: 21307 ± 7059 fmol/mg protein

COc1ccc(CCN2CCN(C/C=C/I)CC2)cc1OC [[^125I]E-IA-DM-PE-PIPZE, [^125I]E-N-1-(3′-iodoallyl)-N′-4-(3″,4″-dimethoxyphenethyl)-piperazine]
Kd [9]: 3.79 nM

COc1ccc(CCN2CCN(C/C=C/[125I])CC2)cc1OC [[^125I]E-IA-DM-PE-PIPZE, [^125I]E-N-1-(3′-iodoallyl)-N′-4-(3″,4″-dimethoxyphenethyl)-piperazine]
Selectivity for binding to σ1 over σ2 receptors ([1]; from Table II): 200 fold
Control specific binding to σ1 receptors, brain [5, 21]: 83%
Control specific binding to σ1 receptors, heart [5, 21]: 53%
Control specific binding to σ1 receptors, lung [5, 21]: 66%
Control specific binding to σ1 receptors, spleen [5, 21]: 71%
Specific Binding [^125I]E-IA-DM-PE-PIPZE, Control ([10]; Caudate-putamen): 1.96 ± 0.07 fmol/mg tissue
Specific Binding [^125I]E-IA-DM-PE-PIPZE, Control ([10]; Cortex, Cingulate): 2.69 ± 0.20 fmol/mg tissue
Specific Binding [^125I]E-IA-DM-PE-PIPZE, Control ([10]; Cortex, Entorhinal): 2.52 ± 0.09 fmol/mg tissue
Specific Binding [^125I]E-IA-DM-PE-PIPZE, Control ([10]; Cortex, Frontal): 2.99 ± 0.19 fmol/mg tissue
Specific Binding [^125I]E-IA-DM-PE-PIPZE, Control ([10]; Cortex, Parietal): 3.12 ± 0.14 fmol/mg tissue
Specific Binding [^125I]E-IA-DM-PE-PIPZE, Control ([10]; Cortex, Temporal): 2.93 ± 0.16 fmol/mg tissue
Specific Binding [^125I]E-IA-DM-PE-PIPZE, Control ([10]; Diencephalon, Thalamic nuclei): 2.94 ± 0.10 fmol/mg tissue
Specific Binding [^125I]E-IA-DM-PE-PIPZE, Control ([10]; Diencephalon, Thalamus): 2.57 ± 0.13 fmol/mg tissue
Specific Binding [^125I]E-IA-DM-PE-PIPZE, Control ([10]; Hippocampus, CA1 pyramidal): 2.25 ± 0.12 fmol/mg tissue
Specific Binding [^125I]E-IA-DM-PE-PIPZE, Control ([10]; Hippocampus, CA2 pyramidal): 2.87 ± 0.13 fmol/mg tissue
Specific Binding [^125I]E-IA-DM-PE-PIPZE, Control ([10]; Hippocampus, CA3 pyramidal): 3.34 ± 0.10 fmol/mg tissue
Specific Binding [^125I]E-IA-DM-PE-PIPZE, Control ([10]; Hippocampus, Dentate Gyrus): 3.27 ± 0.08 fmol/mg tissue
Specific Binding [^125I]E-IA-DM-PE-PIPZE, Control ([10]; Hippocampus, Nonpyramidal): 1.84 ± 0.08 fmol/mg tissue
Specific Binding [^125I]E-IA-DM-PE-PIPZE, Control ([10]; Mesencephalon, Inferior Colliculi): 3.50 ± 0.20 fmol/mg tissue
Specific Binding [^125I]E-IA-DM-PE-PIPZE, Control ([10]; Mesencephalon, Periaqueductal Gray): 4.07 ± 0.13 fmol/mg tissue
Specific Binding [^125I]E-IA-DM-PE-PIPZE, Control ([10]; Mesencephalon, Superior Colliculi): 3.50 ± 0.14 fmol/mg tissue
Specific Binding [^125I]E-IA-DM-PE-PIPZE, Control ([10]; Metencephalon, Cerebellum (whole)): 3.18 ± 0.08 fmol/mg tissue
Specific Binding [^125I]E-IA-DM-PE-PIPZE, Control ([10]; Metencephalon, Granular layer): 4.13 ± 0.20 fmol/mg tissue
Specific Binding [^125I]E-IA-DM-PE-PIPZE, Control ([10]; Metencephalon, Molecular layer): 2.38 ± 0.08 fmol/mg tissue
Specific Binding [^125I]E-IA-DM-PE-PIPZE, Control ([10]; White Matter, Corpus callosum): 1.99 ± 0.06 fmol/mg tissue
Metabolic stability [11]: excellent metabolic stability

(−)-Cocaine hydrochloride
Log D7.4 [12]: 1.31
ED50 for displacement of striatal binding [13]: 38 µmol/kg
ED50 for maximum stimulatory effects on locomotor activity ([14]; CD-1 mice, 3 h period, ref Thomsen and Caine (2011)): 18.2 mg/kg
ED50 for maximum stimulatory effects on locomotor activity ([14]; CD-1 mice, first hour, ref Carroll et al. (2004)): 10 mg/kg
ED50 for maximum stimulatory effects on locomotor activity ([14]; Swiss Webster mice, 3 h period, ref Thomsen and Caine (2011)): 9.7 mg/kg
